Reference: ChEMBL document CHEMBL4715789, “Identification of a Potential Antimalarial Drug Candidate from a Series of 2-Aminopyrazines by Optimization of Aqueous Solubility and Potency across the Parasite Life Cycle” (J Med Chem, 2016)
In brackets after ≈: the same amount, converted by molar mass.

Tests used:
[1] = Oral bioavailability in Sprague-dawley rat at 20 mg/kg by LC-MS/MS analysis; assay type: ADME, organism-based; conditions: in vivo
[2] = test system: Plasmodium falciparum; test: microbe, parasite or virus in culture; conditions: NF54, Erythrocyte
Description: Antiplasmodial activity against multidrug-sensitive Plasmodium falciparum NF54 infected in human erythrocytes assessed as reduction in [3H]hypoxanthine incorporation preincubated for 48 hrs followed by [3H]hypoxanthine addition and measured after 24 hrs by liquid scintillation counting method

[3] = test system: Plasmodium berghei; test: Antiplasmodial activity against Plasmodium berghei ANKA infected in NMRI mouse model assessed as reduction in parasitemia administered orally once a day for 4 consecutive days measured at day 7 post infection by flow cytometry analysis; assay type: functional; conditions: po, 96 h, time 4 day
[4] = test system: Plasmodium falciparum; test: microbe, parasite or virus in culture; conditions: K1, Erythrocyte
Description: Antiplasmodial activity against multidrug-resistant Plasmodium falciparum K1 infected in erythrocytes assessed as reduction in [3H]hypoxanthine incorporation preincubated for 48 hrs followed by [3H]hypoxanthine addition and measured after 24 hrs by liquid scintillation counting method

[5] = Metabolic stability in rat liver microsomes assessed as compound remaining at 0.1 uM measured after 30 mins in presence of cofactor NADPH by LC-MS/MS analysis; assay type: ADME, Microsome; conditions: read-out: Stabilty
[6] = Aqueous solubility of compound in pH 2 0.01M HCl incubated for 2 hrs under shaking condition by shake-flask method based HPLC-DAD analysis; assay type: physicochemical
[7] = AUC(app) in NMRI mouse plasma infected with Plasmodium berghei ANKA at 3 mg/kg, po qd for 4 consecutive days and measured post last dose; assay type: ADME, organism-based; conditions: time 4 day
[8] = test system: Plasmodium falciparum; test: Antiplasmodial activity against Plasmodium falciparum 3D70087/N9 infected in NOD-SCID IL2Rgamma null mouse assessed as reduction in parasitemia administered orally on day 3 to 6 post-infection and measured day 7 post infection by TER-119-PE and […] dye based flow cytometry; assay type: functional; conditions: 3D70087/N9, po, 120 h, time 5 day
[9] = test system: Plasmodium falciparum; test: Antiplasmodial activity against late stage (IV/V) Plasmodium falciparum NF54 gametocytes incubated for 48 hrs by luciferase reporter gene assay; assay type: functional, organism-based; conditions: NF54, 48 h
[10] = Half-life in Sprague-dawley rat at 5 mg/kg, iv by LC-MS/MS analysis; assay type: ADME, organism-based; conditions: in vivo
[11] = Metabolic stability in human liver microsomes assessed as compound remaining at 0.1 uM measured after 30 mins in presence of cofactor NADPH by LC-MS/MS analysis; assay type: ADME, Microsome; conditions: read-out: Stabilty
[12] = Half-life in Sprague-dawley rat at 20 mg/kg, po by LC-MS/MS analysis; assay type: ADME, organism-based; conditions: in vivo
[13] = test system: Plasmodium falciparum; test: Antiplasmodial activity against early stage (II/III) Plasmodium falciparum NF54 gametocytes incubated for 48 hrs by luciferase reporter gene assay; assay type: functional, organism-based; conditions: NF54, 48 h
[14] = Clearance in Sprague-dawley rat at 5 mg/kg, iv by LC-MS/MS analysis; assay type: ADME, organism-based; conditions: in vivo
[15] = test system: Plasmodium falciparum; test: Antimalarial activity against Plasmodium falciparum 3D70087/N9 infected in NOD-SCID IL2Rgamma null mouse assessed as blood AUC level require to show 90% reduction in parasitemia administered orally on day 3 to 6 post-infection and measured day 7 post infection; assay type: functional, organism-based; conditions: time 5.0 day
[16] = Apparent average plasma concentration in NMRI mouse plasma infected with Plasmodium berghei ANKA at 3 mg/kg, po qd for 4 consecutive days and measured post last dose; assay type: ADME, organism-based; conditions: in vivo, 96 h, time 4 day
[17] = test system: Plasmodium berghei; test: Antiplasmodial activity against Plasmodium berghei ANKA infected in NMRI mouse model assessed as mean survival days at 10 mg/kg, po qd for 4 consecutive day; assay type: functional; conditions: time 4 day
[18] = target: Voltage-gated inwardly rectifying potassium channel KCNH2 (Homo sapiens, UniProt Q12809); test: Inhibition of human ERG by IonWorks patch clamp electrophysiology method
[19] = Cmax(app) in NMRI mouse plasma infected with Plasmodium berghei ANKA at 3 mg/kg, po qd for 4 consecutive days and measured post last dose; assay type: ADME, organism-based; conditions: time 4 day
[20] = Selectivity index, ratio of IC50 for cytotoxicity against CHO cells by MTT assay to IC50 for antiplasmodial activity against multidrug-sensitive Plasmodium falciparum NF54 infected in human erythrocytes; assay type: toxicity, cell-based; conditions: Chinese hamster, read-out: Ratio IC50
[21] = test system: Plasmodium berghei; test: Antiplasmodial activity against Plasmodium berghei ANKA infected in NMRI mouse model assessed as mean survival days at 3 mg/kg, po qd for 4 consecutive day; assay type: functional; conditions: time 4 day
[22] = test system: Plasmodium berghei; test: Antiplasmodial activity against Plasmodium berghei ANKA infected in NMRI mouse assessed as reduction in parasitemia at 10 mg/kg, po qd for 4 consecutive days measured at day 7 post infection by flow cytometry analysis; assay type: functional; parameters: scale not given: the % may be the effect or the level left; conditions: time 4 day
[23] = test system: hERG (KCNH2); test: Selectivity ratio of IC50 for inhibition of human ERG by IonWorks patch clamp electrophysiology method to IC50 for antiplasmodial activity against multidrug-sensitive Plasmodium falciparum NF54 infected in human erythrocytes; assay type: toxicity, cell-based; conditions: read-out: Ratio IC50
[24] = Aqueous solubility of compound in pH 6.5 PBS incubated for 2 hrs under shaking condition by shake-flask method based HPLC-DAD analysis; assay type: physicochemical
[25] = test system: Plasmodium berghei; test: Antiplasmodial activity against luciferase expressing Plasmodium berghei sporozoites infected in human HepG2 cells preincubated with compound for 18 hrs followed by plasmodium infection measured after 48 hrs by bioluminescence assay; assay type: functional, organism-based
[26] = Metabolic stability in mouse liver microsomes assessed as compound remaining at 0.1 uM measured after 30 mins in presence of cofactor NADPH by LC-MS/MS analysis; assay type: ADME, Microsome; conditions: read-out: Stabilty
[27] = Volume of distribution in Sprague-dawley rat at 5 mg/kg, iv by LC-MS/MS analysis; assay type: ADME, organism-based; conditions: in vivo
[28] = test system: Plasmodium berghei; test: Antiplasmodial activity against Plasmodium berghei ANKA infected in NMRI mouse assessed as reduction in parasitemia at 3 mg/kg, po qd for 4 consecutive days measured at day 7 post infection by flow cytometry analysis; assay type: functional; parameters: scale not given: the % may be the effect or the level left; conditions: time 4 day
[29] = test system: Plasmodium berghei; test: Antiplasmodial activity against Plasmodium berghei ANKA infected in NMRI mouse model assessed as mean survival days at 30 mg/kg, po qd for 4 consecutive days; assay type: functional; conditions: time 4 day
[30] = Volume of distribution in Sprague-dawley rat at 3 mg/kg, iv by LC-MS/MS analysis; assay type: ADME, organism-based; conditions: in vivo
[31] = Clearance in Sprague-dawley rat at 3 mg/kg, iv by LC-MS/MS analysis; assay type: ADME, organism-based; conditions: in vivo
[32] = Half-life in Sprague-dawley rat at 3 mg/kg, iv by LC-MS/MS analysis; assay type: ADME, organism-based; conditions: in vivo
[33] = Oral bioavailability in Sprague-dawley rat at 10 mg/kg by LC-MS/MS analysis; assay type: ADME, organism-based; conditions: in vivo
[34] = Half-life in Sprague-dawley rat at 10 mg/kg, po by LC-MS/MS analysis; assay type: ADME, organism-based; conditions: in vivo

Voltage-gated inwardly rectifying potassium channel KCNH2, sequence (Q12809 whole entry): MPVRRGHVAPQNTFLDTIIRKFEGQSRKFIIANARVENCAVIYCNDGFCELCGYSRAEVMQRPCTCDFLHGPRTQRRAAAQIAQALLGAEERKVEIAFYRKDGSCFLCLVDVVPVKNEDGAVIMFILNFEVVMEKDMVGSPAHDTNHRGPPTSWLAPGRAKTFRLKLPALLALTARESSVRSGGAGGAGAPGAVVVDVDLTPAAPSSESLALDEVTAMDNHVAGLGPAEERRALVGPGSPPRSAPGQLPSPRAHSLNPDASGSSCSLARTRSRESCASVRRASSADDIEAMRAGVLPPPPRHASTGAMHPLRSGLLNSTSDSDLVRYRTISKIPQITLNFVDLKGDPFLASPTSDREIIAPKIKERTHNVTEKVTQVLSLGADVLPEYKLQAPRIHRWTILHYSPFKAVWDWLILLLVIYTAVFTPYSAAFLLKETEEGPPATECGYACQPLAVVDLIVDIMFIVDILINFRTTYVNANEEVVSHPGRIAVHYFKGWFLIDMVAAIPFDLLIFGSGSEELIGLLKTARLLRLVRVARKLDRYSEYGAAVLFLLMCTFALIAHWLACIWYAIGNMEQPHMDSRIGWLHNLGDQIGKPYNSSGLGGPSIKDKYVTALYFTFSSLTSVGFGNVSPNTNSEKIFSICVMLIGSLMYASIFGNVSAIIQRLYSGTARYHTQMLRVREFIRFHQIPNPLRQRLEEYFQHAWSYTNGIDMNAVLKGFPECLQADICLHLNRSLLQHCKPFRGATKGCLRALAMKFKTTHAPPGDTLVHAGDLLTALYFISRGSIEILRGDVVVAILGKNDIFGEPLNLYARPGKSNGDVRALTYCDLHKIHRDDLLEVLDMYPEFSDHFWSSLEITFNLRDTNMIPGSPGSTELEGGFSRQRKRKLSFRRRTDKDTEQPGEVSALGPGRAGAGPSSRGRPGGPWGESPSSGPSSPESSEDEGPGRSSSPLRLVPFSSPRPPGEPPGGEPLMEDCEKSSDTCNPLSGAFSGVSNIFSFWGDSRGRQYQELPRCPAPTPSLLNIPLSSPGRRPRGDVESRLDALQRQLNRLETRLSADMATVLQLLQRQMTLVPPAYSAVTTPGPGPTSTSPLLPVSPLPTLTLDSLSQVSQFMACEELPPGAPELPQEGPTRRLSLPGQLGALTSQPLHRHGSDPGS

Structure (SMILES) | bioavailability [1] [%] | IC50 [2] [nM] | IC50 [4] [nM] | remaining at 0.5 h, 0.1 µM [5] [%] | solubility thermodynamic at 2 h [6] [µM] | ED90 [8] [mg/kg] | IC50 [9] [nM] | remaining at 0.5 h, 0.1 µM [11] [%] | half-life [12] [h] | IC50 [13] [nM] | AUC [15] [ng·h/mL] | MSD [17] [days] | IC50 [18] [nM] | selectivity ratio [20] | MSD [21] [days] | Activity [22] [%] | selectivity ratio [23] | solubility thermodynamic at 2 h [24] [µM] | IC50 [25] [nM] | remaining at 0.5 h, 0.1 µM [26] [%] | further results
Nc1ncc(-c2ccc(C(=O)N3CC[C@@H](O)C3)cc2)nc1-c1ccc(C(F)(F)F)cc1 | 71 | 22 | 20 | > 90 | 103 (≈ 44.1 µg/mL) | 0.14 | 137 | > 90 | 7.2 | 323 | 60 | 26 | > 33000 | > 1800 | 8 | 100 | > 1000 | 90 (≈ 38.6 µg/mL) | 14 | > 90 | ED90 [3]: 1.1 mg/kg; AUC at 96 h [7]: 33.2 µM·h; half-life [10]: 5.3 h; clearance [14]: 13.5 mL/min/kg; Cave [16]: 1930 nM; Cmax [19]: 3290 nM; Vd [27]: 8.2 L/kg
Nc1ncc(-c2ccc(C(=O)O)cc2)nc1-c1ccc(C(F)(F)F)nc1 | 38 | 19 | 26 | > 90 | 191 (≈ 68.8 µg/mL) | < 0.5 | 845 | > 90 | 3.9 | 168 | < 440 | 10 | – | > 1800 | 7 | 99.8 | – | 178 (≈ 64.1 µg/mL) | 528 | > 90 | AUC at 96 h [7]: 30.8 µM·h; Activity [28]: 93%; Cave [16]: 1480 nM; Cmax [19]: 2290 nM
Nc1ncc(-c2ccc(C(=O)N3CC(O)C3)cc2)nc1-c1ccc(C(F)(F)F)cc1 | 20 | 9.2 | 7 | > 90 | 110 (≈ 45.6 µg/mL) | 0.17 | 45 | > 90 | 5.2 | 415 | 22 | >30 | – | > 1800 | 10 | 99.9 | – | 55 (≈ 22.8 µg/mL) | 2.7 | > 90 | Activity [28]: 99.7%; half-life [10]: 3 h; clearance [14]: 22 mL/min/kg; Vd [27]: 5.7 L/kg
Nc1ncc(-c2ccc(C(=O)N3CCC(N)C3)cc2)nc1-c1ccc(C(F)(F)F)cc1 (stereo not drawn) | – | 19 | 12 | – | 165 (≈ 70.5 µg/mL) | – | – | – | – | – | – | – | 10000 | – | 7 | – | 526 | 102 (≈ 43.6 µg/mL) | – | – | Activity [28]: 71%
O[C@@H](c1cc(C(F)(F)F)nc2c(C(F)(F)F)cccc12)[C@H]1CCCCN1 [(S,R)-MEFLOQUINE] | – | – | – | – | – | – | – | – | – | – | – | – | – | – | – | – | – | – | – | – | MSD [29]: 29 days
Nc1ncc(-c2ccc(C(=O)N3CCC(O)CC3)cc2)nc1-c1ccc(C(F)(F)F)cc1 | – | 5.4 | 5 | > 90 | 119 (≈ 52.7 µg/mL) | 0.11 | 179 | > 90 | – | 603 | 60 | 11 | > 33000 | > 1800 | 7 | 99.9 | > 1000 | 19 (≈ 8.41 µg/mL) | 4.1 | > 90 | Vd [30]: 5.1 L/kg; clearance [31]: 7.1 mL/min/kg; half-life [32]: 8.1 h; bioavailability [33]: 25%; half-life [34]: 5.4 h
